Assay results from ChEMBL document CHEMBL2074167, “Sterol transport by the human breast cancer resistance protein (ABCG2) expressed in Lactococcus lactis” (J Biol Chem, 2003).

Columns and labels:
[1] = target: T1, Broad substrate specificity ATP-binding cassette transporter ABCG2 (Homo sapiens, UniProt Q9UNQ0); test: TP_TRANSPORTER: uptake in membrane vesicle from BCRP-expressing Lactococcus lactis cells; format: functional, cell membranes, NZ9000
T1 sequence (Q9UNQ0 whole entry): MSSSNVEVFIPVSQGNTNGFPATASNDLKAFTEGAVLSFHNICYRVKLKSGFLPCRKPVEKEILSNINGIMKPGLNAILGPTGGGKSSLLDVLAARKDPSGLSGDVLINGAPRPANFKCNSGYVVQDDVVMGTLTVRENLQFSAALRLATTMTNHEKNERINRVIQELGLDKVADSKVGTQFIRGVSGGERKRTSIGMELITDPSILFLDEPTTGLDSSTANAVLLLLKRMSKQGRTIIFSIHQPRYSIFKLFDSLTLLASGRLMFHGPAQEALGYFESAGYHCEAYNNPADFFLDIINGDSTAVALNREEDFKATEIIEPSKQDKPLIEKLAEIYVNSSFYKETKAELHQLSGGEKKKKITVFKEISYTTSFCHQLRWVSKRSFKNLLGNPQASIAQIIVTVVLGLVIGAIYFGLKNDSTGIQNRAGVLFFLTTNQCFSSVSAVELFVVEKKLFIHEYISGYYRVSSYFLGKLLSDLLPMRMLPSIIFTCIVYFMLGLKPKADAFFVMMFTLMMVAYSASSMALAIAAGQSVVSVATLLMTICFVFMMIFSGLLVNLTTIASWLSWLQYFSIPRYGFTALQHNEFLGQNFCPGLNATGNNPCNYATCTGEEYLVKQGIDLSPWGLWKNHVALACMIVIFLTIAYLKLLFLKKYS

[2] = target: T1, Broad substrate specificity ATP-binding cassette transporter ABCG2; test: TP_TRANSPORTER: uptake in BCRP-expressing Lactococcus lactis cells; format: functional, NZ9000
[3] = target: T1, Broad substrate specificity ATP-binding cassette transporter ABCG2; test: TP_TRANSPORTER: ATPase assay in membrane vesicle from BCRP-expressing Lactococcus lactis cells; format: functional, cell membranes, NZ9000
[4] = target: T1, Broad substrate specificity ATP-binding cassette transporter ABCG2; test: TP_TRANSPORTER: growth inhibition in BCRP-expressing Lactococcus lactis cells; format: functional, NZ9000

Structure (SMILES) | Activity [2] | Activity [3] | further results
CCOc1ccc(-c2nc3cc(-c4nc5cc(N6CCN(C)CC6)ccc5[nH]4)ccc3[nH]2)cc1 | substrate [] |  | Activity [1]: substrate []
CC(C)CCC[C@@H](C)[C@H]1CC[C@H]2[C@@H]3CC=C4C[C@@H](O)CC[C@]4(C)[C@H]3CC[C@]12C [CHOLESTEROL] |  | substrate [] | 
COc1cccc2c1C(=O)c1c(O)c3c(c(O)c1C2=O)C[C@@](O)(C(C)=O)C[C@@H]3O[C@H]1C[C@H](N)[C@H](O)[C@H](C)O1 [DAUNORUBICIN] |  | substrate [] | 
C[C@]12CC[C@@H]3c4ccc(O)cc4CC[C@H]3[C@@H]1CC[C@@H]2O [ESTRADIOL] | substrate [] | substrate [] | 
CC[n+]1c(-c2ccccc2)c2cc(N)ccc2c2ccc(N)cc21.[Br-] [HOMIDIUM BROMIDE] | substrate [] |  | Activity [4]: substrate []
CC(=O)[C@H]1CC[C@H]2[C@@H]3CCC4=CC(=O)CC[C@]4(C)[C@H]3CC[C@]12C [PROGESTERONE] |  | substrate [] | 
COC(=O)c1ccccc1-c1c2ccc(=N)cc-2oc2cc(N)ccc12.Cl [RHODAMINE123] | substrate [] |  | 
CC/C(=C(\c1ccccc1)c1ccc(OCCN(C)C)cc1)c1ccccc1 [TAMOXIFEN] |  | substrate [] | 
C[C@]12CC[C@H]3[C@@H](CCC4=CC(=O)CC[C@@]43C)[C@@H]1CC[C@@H]2O [TESTOSTERONE] |  | substrate [] | 
